Experimental findings from patent publication US8044069B2, “Compounds as calcium channel blockers” (Abbott Laboratories, priority 2008, dated 2011) are described below.

What is called pIC50 is −log10 of the IC50, conventionally taken in molar units.

pIC50: −log10 of the molar value.

The target in the assay is human Cav2.2 (Homo sapiens, UniProt Q00975). Briefly: Assessment of calcium channel activity using FLIPR (Ca2+ influx in IMR32 cells). The class given is cell-based. To be noted: IMR32 cells endogenously expressing human Cav2.2; 60 minute pre-incubation; 2 μM nifedipine; depolarized with 80 mM KCl, 5 mM CaCl2. The procedure, abridged: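 FLIPR measured Ca2+ influx triggered by 80 mM KCl depolarization together with a step to 5 mM external CaCl2. Percent inhibition relative to uninhibited activity was fitted sigmoidally for IC50.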
Sequence of human Cav2.2 (Q00975 whole entry): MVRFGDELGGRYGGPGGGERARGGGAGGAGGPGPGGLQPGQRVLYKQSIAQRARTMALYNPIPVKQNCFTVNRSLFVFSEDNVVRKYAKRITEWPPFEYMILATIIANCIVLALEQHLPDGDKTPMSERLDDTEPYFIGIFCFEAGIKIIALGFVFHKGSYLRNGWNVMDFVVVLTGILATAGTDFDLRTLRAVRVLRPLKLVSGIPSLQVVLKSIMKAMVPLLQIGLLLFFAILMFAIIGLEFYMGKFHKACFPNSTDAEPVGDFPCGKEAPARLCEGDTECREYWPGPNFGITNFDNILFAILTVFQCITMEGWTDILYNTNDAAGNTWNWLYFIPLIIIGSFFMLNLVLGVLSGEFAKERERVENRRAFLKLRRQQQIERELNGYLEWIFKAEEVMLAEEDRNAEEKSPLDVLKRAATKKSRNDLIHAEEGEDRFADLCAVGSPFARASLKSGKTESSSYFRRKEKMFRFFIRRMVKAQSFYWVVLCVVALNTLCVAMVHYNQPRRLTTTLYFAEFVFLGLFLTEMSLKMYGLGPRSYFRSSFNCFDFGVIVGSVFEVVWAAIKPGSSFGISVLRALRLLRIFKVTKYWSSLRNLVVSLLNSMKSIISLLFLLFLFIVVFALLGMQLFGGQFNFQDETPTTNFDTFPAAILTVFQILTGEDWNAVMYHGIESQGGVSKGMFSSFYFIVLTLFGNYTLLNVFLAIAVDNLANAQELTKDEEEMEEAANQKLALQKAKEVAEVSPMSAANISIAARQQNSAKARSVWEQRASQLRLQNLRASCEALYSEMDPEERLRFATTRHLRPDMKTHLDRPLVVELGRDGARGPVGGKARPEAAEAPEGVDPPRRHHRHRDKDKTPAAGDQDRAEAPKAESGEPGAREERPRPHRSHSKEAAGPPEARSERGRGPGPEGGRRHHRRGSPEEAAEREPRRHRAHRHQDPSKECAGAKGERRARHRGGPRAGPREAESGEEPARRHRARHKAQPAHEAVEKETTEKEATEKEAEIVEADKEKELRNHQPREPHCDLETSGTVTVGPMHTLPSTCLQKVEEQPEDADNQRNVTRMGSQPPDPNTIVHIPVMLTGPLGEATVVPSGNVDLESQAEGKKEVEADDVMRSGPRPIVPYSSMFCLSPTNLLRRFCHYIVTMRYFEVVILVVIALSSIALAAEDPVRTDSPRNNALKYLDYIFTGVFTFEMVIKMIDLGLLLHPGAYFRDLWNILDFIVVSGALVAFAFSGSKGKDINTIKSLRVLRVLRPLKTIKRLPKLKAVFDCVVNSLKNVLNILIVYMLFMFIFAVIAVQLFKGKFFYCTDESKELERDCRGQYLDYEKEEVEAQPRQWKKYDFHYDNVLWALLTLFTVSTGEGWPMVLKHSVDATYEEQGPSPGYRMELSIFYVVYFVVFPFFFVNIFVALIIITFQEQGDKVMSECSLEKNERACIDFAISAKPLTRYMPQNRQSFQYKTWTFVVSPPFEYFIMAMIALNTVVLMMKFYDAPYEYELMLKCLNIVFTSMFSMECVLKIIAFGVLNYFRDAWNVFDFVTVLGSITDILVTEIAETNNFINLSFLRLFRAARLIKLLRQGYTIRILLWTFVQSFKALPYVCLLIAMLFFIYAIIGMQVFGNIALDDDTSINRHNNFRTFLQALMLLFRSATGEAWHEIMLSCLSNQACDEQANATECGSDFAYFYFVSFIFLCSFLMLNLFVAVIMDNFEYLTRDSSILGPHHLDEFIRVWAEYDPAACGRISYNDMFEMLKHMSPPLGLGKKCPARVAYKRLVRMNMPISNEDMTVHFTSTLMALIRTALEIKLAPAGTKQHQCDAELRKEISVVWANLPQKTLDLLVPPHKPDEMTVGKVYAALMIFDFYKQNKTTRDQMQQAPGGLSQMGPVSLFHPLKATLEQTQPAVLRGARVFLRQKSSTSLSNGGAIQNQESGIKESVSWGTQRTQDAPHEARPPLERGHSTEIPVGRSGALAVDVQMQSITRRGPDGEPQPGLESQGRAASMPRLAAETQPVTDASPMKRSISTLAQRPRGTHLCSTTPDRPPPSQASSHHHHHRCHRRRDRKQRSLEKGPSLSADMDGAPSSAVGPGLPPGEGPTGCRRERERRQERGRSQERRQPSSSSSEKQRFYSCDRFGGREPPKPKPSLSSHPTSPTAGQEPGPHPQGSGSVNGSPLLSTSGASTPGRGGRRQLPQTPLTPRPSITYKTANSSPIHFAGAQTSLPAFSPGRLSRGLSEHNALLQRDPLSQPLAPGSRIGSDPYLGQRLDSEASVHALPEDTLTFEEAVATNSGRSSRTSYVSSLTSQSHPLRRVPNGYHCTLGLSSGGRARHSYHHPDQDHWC
Sequence of human Cav2.2 (P54289 25-951 partner limits assumed): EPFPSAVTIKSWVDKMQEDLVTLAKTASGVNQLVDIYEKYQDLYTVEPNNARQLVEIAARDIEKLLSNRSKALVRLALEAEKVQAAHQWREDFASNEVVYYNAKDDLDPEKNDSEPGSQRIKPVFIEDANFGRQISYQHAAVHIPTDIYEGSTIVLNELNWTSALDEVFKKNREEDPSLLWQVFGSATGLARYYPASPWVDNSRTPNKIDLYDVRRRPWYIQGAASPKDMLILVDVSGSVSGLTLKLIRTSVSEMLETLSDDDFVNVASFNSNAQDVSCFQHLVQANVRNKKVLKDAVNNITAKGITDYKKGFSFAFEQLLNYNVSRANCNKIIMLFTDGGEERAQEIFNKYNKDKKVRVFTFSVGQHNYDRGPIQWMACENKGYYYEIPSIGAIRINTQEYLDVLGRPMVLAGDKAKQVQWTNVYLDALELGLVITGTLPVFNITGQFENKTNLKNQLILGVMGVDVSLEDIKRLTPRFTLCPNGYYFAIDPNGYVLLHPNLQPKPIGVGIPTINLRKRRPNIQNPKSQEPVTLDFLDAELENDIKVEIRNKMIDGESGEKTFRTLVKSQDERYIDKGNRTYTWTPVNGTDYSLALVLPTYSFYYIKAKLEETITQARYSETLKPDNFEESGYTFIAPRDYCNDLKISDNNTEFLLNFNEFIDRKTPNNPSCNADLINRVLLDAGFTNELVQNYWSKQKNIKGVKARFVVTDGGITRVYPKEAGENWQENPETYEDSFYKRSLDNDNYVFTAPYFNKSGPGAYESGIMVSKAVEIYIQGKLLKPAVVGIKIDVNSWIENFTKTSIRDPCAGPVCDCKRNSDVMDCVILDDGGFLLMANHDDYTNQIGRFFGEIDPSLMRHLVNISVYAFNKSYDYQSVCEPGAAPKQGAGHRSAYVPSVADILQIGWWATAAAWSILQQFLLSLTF
Sequence of human Cav2.2 (P54289 952-1103 partner limits assumed): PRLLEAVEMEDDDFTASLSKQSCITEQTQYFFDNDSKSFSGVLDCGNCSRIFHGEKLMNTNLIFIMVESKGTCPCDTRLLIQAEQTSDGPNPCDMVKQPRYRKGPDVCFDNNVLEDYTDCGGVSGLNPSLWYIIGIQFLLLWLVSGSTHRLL
Sequence of human Cav2.2 (P54284 whole entry partner): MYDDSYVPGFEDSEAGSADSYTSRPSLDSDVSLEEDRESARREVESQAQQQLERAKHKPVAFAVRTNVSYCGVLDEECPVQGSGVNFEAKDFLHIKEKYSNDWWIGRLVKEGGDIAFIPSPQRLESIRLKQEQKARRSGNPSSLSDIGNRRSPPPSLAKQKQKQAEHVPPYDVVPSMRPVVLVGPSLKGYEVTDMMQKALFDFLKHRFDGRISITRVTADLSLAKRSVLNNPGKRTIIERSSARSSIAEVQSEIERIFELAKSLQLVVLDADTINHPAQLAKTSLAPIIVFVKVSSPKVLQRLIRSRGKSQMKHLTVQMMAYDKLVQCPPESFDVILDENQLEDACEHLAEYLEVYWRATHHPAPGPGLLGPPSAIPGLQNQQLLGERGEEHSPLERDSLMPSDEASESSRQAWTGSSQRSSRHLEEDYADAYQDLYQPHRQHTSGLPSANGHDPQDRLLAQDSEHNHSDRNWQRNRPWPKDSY

Regarding `O=C(CN1CCCC(c2ccccc2)C1=O)N1Cc2ccc(F)cc2C1` (centres unmarked) [Example 95, 1-[2-(5-fluoro-1,3-dihydro-2H-isoindol-2-yl)-2-oxoethyl]-3-phenylpiperidin-2-one], the pIC50 is 4.46.

Consider `CN(CCCN1CCCC(c2ccccc2)(c2ccccc2)C1=O)CCc1ccccc1` [Example 117, 1-{3-[methyl(2-phenylethyl)amino]propyl}-3,3-diphenylpiperidin-2-one], for which the pIC50 is 5.46.

For `O=C(CN1CCC(c2ccccc2)(c2ccccc2)C1=O)N1CCN(Cc2cccc(C(F)(F)F)c2)CC1` [Example 37, 1-(2-oxo-2-{4-[3-(trifluoromethyl)benzyl]piperazin-1-yl}ethyl)-3,3-diphenylpyrrolidin-2-one], the pIC50 is 5.99. Consider `O=C(CN1CCC(c2ccccc2)(c2ccccc2)C1=O)N1CCC(C(O)(c2ccc(F)cc2)c2ccc(F)cc2)CC1` [Example 32, 1-(2-{4-[bis(4-fluorophenyl)(hydroxy)methyl]piperidin-1-yl}-2-oxoethyl)-3,3-diphenylpyrrolidin-2-one], for which the pIC50 is 6.15. In the case of `O=C(CN1CCCC(c2ccc(F)cc2)(c2ccc(F)cc2)C1=O)N1CCC(c2ccccc2)(c2ccccc2)C1` [Example 172, 1-[2-(3,3-diphenylpyrrolidin-1-yl)-2-oxoethyl]-3,3-bis(4-fluorophenyl)piperidin-2-one], the pIC50 was 5.75. As to `O=C1CN(CCN2CCC(c3ccccc3)(c3ccccc3)C2=O)CCN1C(c1ccccc1)c1ccccc1` [Example 66, 1-benzhydryl-4-[2-(2-oxo-3,3-diphenylpyrrolidin-1-yl)ethyl]piperazin-2-one], the pIC50 is 5.74. `O=C(CN1CCCC(c2ccccc2)(c2ccccc2)C1=O)N1CCC(Oc2cccc(Cl)c2)CC1` [Example 159, 1-{2-[4-(3-chlorophenoxy)piperidin-1-yl]-2-oxoethyl}-3,3-diphenylpiperidin-2-one]: the pIC50 is 5.43.

As for `O=C(CN1CCC(c2ccccc2)(c2ccccc2)C1=O)N1CCN(Cc2c(Cl)cccc2Cl)CC1` [Example 36, 1-{2-[4-(2,6-dichlorobenzyl)piperazin-1-yl]-2-oxoethyl}-3,3-diphenylpyrrolidin-2-one], the pIC50 is 6.05.

In the case of `O=C(CN1CCC(c2ccccc2)(c2ccccc2)C1=O)NC1CCN(C(c2ccccc2)c2ccccc2)CC1` [Example 48, N-(1-benzhydrylpiperidin-4-yl)-2-(2-oxo-3,3-diphenylpyrrolidin-1-yl)acetamide], the negative logarithm of the IC50 (pIC50) is 6.40. Take `O=C(CN1CCCC(c2ccccc2)(c2ccccc2)C1=O)N1CCC(c2ccccc2)(c2ccccc2)C1` [Example 174, 1-[2-(3,3-diphenylpyrrolidin-1-yl)-2-oxoethyl]-3,3-diphenylpiperidin-2-one]: the pIC50 was 5.61. For the molecule `O=C(CN1CCCC(c2ccccc2)(c2ccccc2)C1=O)N1CCc2ccccc2C1` [Example 260, 1-[2-(3,4-dihydroisoquinolin-2(1H)-yl)-2-oxoethyl]-3,3-diphenylpiperidin-2-one], the pIC50 is 5.15. For the molecule `O=C(CN1CCC(c2ccccc2)(c2ccccc2)C1=O)NC1CCCc2ccccc21` (centres unmarked) [Example 27, 2-(2-oxo-3,3-diphenylpyrrolidin-1-yl)-N-1,2,3,4-tetrahydronaphthalen-1-ylacetamide], the pIC50 was 5.52.

As to `O=C(CN1CCC(c2ccc(F)cc2)(c2ccc(F)cc2)C1=O)N1CC2(CCN(Cc3ccc(C(F)(F)F)cc3)CC2)C1` [Example 153, 3,3-bis(4-fluorophenyl)-1-(2-oxo-2-{7-[4-(trifluoromethyl)benzyl]-2,7-diazaspiro[3.5]non-2-yl}ethyl)pyrrolidin-2-one], the pIC50 is 6.07. With `O=C(CN1CCC(c2ccc(F)cc2)(c2ccc(F)cc2)C1=O)Nc1ccc(C(F)(F)F)cn1` [Example 217, 2-[3,3-bis(4-fluorophenyl)-2-oxopyrrolidin-1-yl]-N-[5-(trifluoromethyl)pyridin-2-yl]acetamide], the pIC50 is 5.58. Turning to `CC(C)(C)OC(=O)Nc1ccc(-c2noc(CN3CCC(c4ccccc4)(c4ccccc4)C3=O)n2)cn1` [Example 231, tert-butyl 5-{5-[(2-oxo-3,3-diphenylpyrrolidin-1-yl)methyl]-1,2,4-oxadiazol-3-yl}pyridin-2-ylcarbamate], the pIC50 was below 4.52. Regarding `O=C1N(Cc2nc(-c3ccc(Cl)cc3)no2)CCCC1(c1ccccc1)c1ccccc1` [Example 170, 1-{[3-(4-chlorophenyl)-1,2,4-oxadiazol-5-yl]methyl}-3,3-diphenylpiperidin-2-one], the pIC50 was 5.17. For `O=C(CN1CCCC(c2ccccc2)(c2ccccc2)C1=O)N1CCC(O)(c2ccc(Cl)c(C(F)(F)F)c2)CC1` [Example 250, 1-(2-{4-[4-chloro-3-(trifluoromethyl)phenyl]-4-hydroxypiperidin-1-yl}-2-oxoethyl)-3,3-diphenylpiperidin-2-one], the negative-log IC50 (pIC50) was 5.38. For `O=C(CN1CCCC(c2ccccc2)(c2ccccc2)C1=O)N1CCN(Cc2ccc(C(F)(F)F)cc2)CC1` [Example 80, 1-(2-oxo-2-{4-[4-(trifluoromethyl)benzyl]piperazin-1-yl}ethyl)-3,3-diphenylpiperidin-2-one], the negative logarithm of the IC50 (pIC50) is 5.86. Consider `O=C(CN1CCCC(c2ccccc2)(c2ccccc2)C1=O)NC1CN(Cc2cccc(C(F)(F)F)c2)C1` [Example 180, 2-(2-oxo-3,3-diphenylpiperidin-1-yl)-N-{1-[3-(trifluoromethyl)benzyl]azetidin-3-yl}acetamide], for which the pIC50 was 6.03. With `O=C(CN1CCCC(c2ccccc2)C1=O)N1CCN(C(c2ccc(F)cc2)c2ccc(F)cc2)CC1` (centres unmarked) [Example 92, 1-(2-{4-[bis(4-fluorophenyl)methyl]piperazin-1-yl}-2-oxoethyl)-3-phenylpiperidin-2-one], the negative-log IC50 (pIC50) is 6.00. Regarding `O=C1N(Cc2nc(CCc3ccc(Cl)cc3)no2)CCCC1(c1ccccc1)c1ccccc1` [Example 213, 1-({3-[2-(4-chlorophenyl)ethyl]-1,2,4-oxadiazol-5-yl}methyl)-3,3-diphenylpiperidin-2-one], the negative logarithm of the IC50 (pIC50) was 5.80. Regarding `O=C(CN1CCC(c2ccc(F)cc2)(c2ccc(F)cc2)C1=O)NC1CCN(Cc2cccc(C(F)(F)F)c2)CC1` [Example 208, 2-[3,3-bis(4-fluorophenyl)-2-oxopyrrolidin-1-yl]-N-{1-[3-(trifluoromethyl)benzyl]piperidin-4-yl}acetamide], the pIC50 was 5.62.

Regarding `O=C(CN1CCCC(c2ccccc2)(c2ccccc2)C1=O)N1CCN(C(c2ccccc2)c2ccccc2)C(=O)C1` [Example 83, 1-benzhydryl-4-[(2-oxo-3,3-diphenylpiperidin-1-yl)acetyl]piperazin-2-one], the pIC50 was 5.91.

As for `O=C(CN1CCC(c2ccc(F)cc2)(c2ccc(F)cc2)C1=O)Nc1cccc(C(F)(F)F)n1` [Example 226, 2-[3,3-bis(4-fluorophenyl)-2-oxopyrrolidin-1-yl]-N-[6-(trifluoromethyl)pyridin-2-yl]acetamide], the pIC50 was 5.61.

Regarding `COc1ccc(CC2(C)CN(C(=O)CN3CCC(c4ccccc4)(c4ccccc4)C3=O)CCN2)cc1OC` (centres unmarked) [Example 167, 1-{2-[3-(3,4-dimethoxybenzyl)-3-methylpiperazin-1-yl]-2-oxoethyl}-3,3-diphenylpyrrolidin-2-one], the negative-log IC50 (pIC50) was 5.69. With `O=C(CN1CCC(c2ccccc2)(c2ccccc2)C1=O)N1CCCC(c2ccccc2)(c2ccccc2)C1` [Example 24, 1-[2-(3,3-diphenylpiperidin-1-yl)-2-oxoethyl]-3,3-diphenylpyrrolidin-2-one], the negative-log IC50 (pIC50) is 6.09.

As for `O=C(CN1CCNC(c2ccccc2)C1=O)N1CCN(C(c2ccccc2)c2ccccc2)CC1` (centres unmarked) [Example 102, 1-[2-(4-benzhydrylpiperazin-1-yl)-2-oxoethyl]-3-phenylpiperazin-2-one], the negative logarithm of the IC50 (pIC50) was 5.08. With `O=C(CN1CCC(c2ccccc2)(c2ccccc2)C1=O)N1CCC(=C(c2ccccc2)c2ccccc2)CC1` [Example 31, 1-{2-[4-(diphenylmethylene)piperidin-1-yl]-2-oxoethyl}-3,3-diphenylpyrrolidin-2-one], the pIC50 was 5.72. As to `CN1CCN(CC(=O)N2CCN(C(c3ccc(F)cc3)c3ccc(F)cc3)CC2)C(=O)C1c1ccccc1` (centres unmarked) [Example 104, 1-(2-{4-[bis(4-fluorophenyl)methyl]piperazin-1-yl}-2-oxoethyl)-4-methyl-3-phenylpiperazin-2-one], the pIC50 was 5.33.

For `O=C(CN1CCC(c2ccccc2)(c2ccccc2)C1=O)N1CCc2ccc(C(F)(F)F)cc2C1` [Example 55, 1-{2-oxo-2-[7-(trifluoromethyl)-3,4-dihydroisoquinolin-2(1H)-yl]ethyl}-3,3-diphenylpyrrolidin-2-one], the negative logarithm of the IC50 (pIC50) is 5.67.

As for `O=C(CN1CCC(c2ccc(F)cc2Cl)C1=O)N1Cc2ccc(F)cc2C1` (centres unmarked) [Example 268, 3-(2-chloro-4-fluorophenyl)-1-[2-(5-fluoro-1,3-dihydro-2H-isoindol-2-yl)-2-oxoethyl]pyrrolidin-2-one], the pIC50 was 4.94. With `O=C(CN1CCC(c2ccc(F)cc2)(c2ccc(F)cc2)C1=O)N1CC2(CCN(Cc3ccccc3)CC2)C1` [Example 152, 1-[2-(7-benzyl-2,7-diazaspiro[3.5]non-2-yl)-2-oxoethyl]-3,3-bis(4-fluorophenyl)pyrrolidin-2-one], the pIC50 is 6.14.

As for `O=C(CN1CCC(c2ccccc2)(c2ccccc2)C1=O)NC(c1ccccc1)c1ccccc1` [Example 14, N-benzhydryl-2-(2-oxo-3,3-diphenylpyrrolidin-1-yl)acetamide], the pIC50 is 6.01. Take `N#Cc1ccc(-c2noc(CN3CCC(c4ccc(F)cc4)(c4ccc(F)cc4)C3=O)n2)cc1` [Example 235, 4-(5-{[3,3-bis(4-fluorophenyl)-2-oxopyrrolidin-1-yl]methyl}-1,2,4-oxadiazol-3-yl)benzonitrile]: the pIC50 was 5.50. `O=C(NC1CC1)c1cccc(S(=O)(=O)N2CCC(c3ccccc3)(c3ccccc3)C2=O)c1` [Example 150, N-cyclopropyl-3-[(2-oxo-3,3-diphenylpyrrolidin-1-yl)sulfonyl]benzamide]: the pIC50 is 6.07.
